{"source": "patent US6624149B2", "about": "“Method for nucleic acid transfection of cells” (Genteric, Inc., priority 2000, dated 2003)", "test_system": "rat submandibular gland", "experiment": "Cationic liposome-mediated hGH gene delivery to rat submandibular gland", "assay_type": "in vivo", "set-up": "human growth hormone protein expression, Trial 1 to Trial 8: unit not given here", "conditions": "for human growth hormone protein expression, Average / human growth hormone protein expression, Trial 1 to Trial 8: one week post-administration; for human growth hormone protein expression, Trial 1 to Trial 8: individual glands, DOHBD:DOPE liposome, 175 micrograms pCMV.FOX.hGH per gland, listed as Zn", "procedure": "In embodiments in which a liposome/transition metal/nucleic acid mixture was used, 200 μl of the liposome/transition metal/nucleic acid mixture was injected, infused, instilled or administered at the ductal orifice or directly into the duct at any point along its length. See Goldfine, Nature Biotechnology 15:1378, 1997. The liposome/transition metal/nucleic acid mixture was prepared by sequentially adding an appropriate amount of sterile water, liposome solution (3:1, N,N,N′,N′-tetramethyl-N,N′-bis(2-hydroxyethyl)-2,3-bis(9(z)-octadecenoyloxy)-1,4-butanediaminium iodide (DOHBD):DOPE), transition metal enhancer, and the plasmid DNA pCMV.FOX.hGH to a polypropylene tube.\nRegardless of whether a liposome/transition metal/nucleic acid mixture or a nucleic acid/transition metal enhancer mixture was delivered, the tubing and mixture was kept in place for ten additional minutes after application of the mixture prior to removal. At 48 hours post atropine administration, the rats were anesthetized by intraperitoneal injection of pentobarbital (50 mg/kg). The right and left submandibular glands were surgically removed, and the tissues were assayed for any observable reporter gene (luciferase of hGH) expression using the methods described below.\nIn one embodiment, an appropriate mass of cationic lipid and the neutral lipid dioleoylphosphatidylethanolamine (DOPE) was added as solutions in chloroform to 1.9 mL sample vials to yield the desired molar ratio of cationic lipid:DOPE. The chloroform was removed via rotary evaporation at 37° C. The resulting thin lipid films were placed under vacuum overnight to insure that all traces of solvent have been removed. The lipid mixture was resuspended in 1 mL sterile water at 25° C. until the film is hydrated, and then vortex mixed to afford an emulsion. For the in vitro experiments, these emulsions were formulated as a cationic lipid concentration of 1 mM. For the in vivo experiments, the emulsions were formulated at a cationic lipid concentration of 3 mM.\nTo perform this study, cationic lipid/nucleic acid/zinc mixtures were prepared by mixing the appropriate amount of sterile water, cationic liposomes, zinc chloride and pCMV.FOX.hGH plasmid DNA in a polystyrene tube. Specifically, 40 microliters of a 3 mM 3:1 DOHBD:DOPE liposome mixture, 270 microliters of a 8.08 microgram/microliter pCMV.FOX.hGH plasmid DNA mixture, and an appropriate amount of a 70 mM zinc chloride mixture were added to a polystyrene tube containing a sufficient amount of water to give a final total volume of 2500 microliters. In this experiment, the final zinc chloride concentration was either 0.125 mM, 0.250 mM, or no zinc at all. The cationic lipid:DNA phosphate ratio in this study remained constant for all mixtures screened. Once prepared, 200 microliters of each mixture was instilled into the right and left submandibular glands of four male Sprague-Dawley rats. Thus, 175 micrograms of the plasmid DNA was instilled into each gland. After one week post-administration of the cationic lipid/nucleic acid/zinc mixtures, the salivary gland of the rats were extracted, mixed with a phosphate lysis buffer (10 mM, pH 8.0) and homogenized. The homogenate was then assayed for human growth hormone protein expression. […]", "note": "Values joined by “and” are separate entries in the source; they are usually repeats but may differ in a detail not shown here. Equal values may be shown once."}
{"smiles": "[Cl-].[Cl-].[Zn+2]", "note": "[ZnCl2, zinc chloride]", "values": [{"measurement": "human growth hormone protein expression, Average", "setting": "[Zn] 0.125 mM", "value": 505.6361}, {"measurement": "human growth hormone protein expression, Average", "setting": "[Zn] 0.25 mM", "value": 464.7687}, {"measurement": "human growth hormone protein expression, Trial 1 to Trial 8", "setting": "[Zn] 0.125 mM", "value": "452.1 and 360.8 and 261.7 and 355.7 and 517.2 and 575.6 and 943.5 and 1084"}, {"measurement": "human growth hormone protein expression, Trial 1 to Trial 8", "setting": "[Zn] 0.25 mM", "value": "857.731 and 753.3 and 272.6 and 315.3 and 604.3 and 449.9"}, {"measurement": "enhancement of in vivo transfection compared to cationic liposome/nucleic acid mixture not containing zinc", "setting": "rat submandibular gland", "value": "at least two"}]}
